Results from patent US8129355B2, “Ketone ligands for modulating the expression of exogenous genes via an ecdysone receptor complex” (priority 2002, dated 2012).

How the values were obtained:
[1] = target: T1, Gal4 DBD/AaEcR (DEF) with VP16-βRXR-E (Aedes aegypti, UniProt P49880); assay: cell-based; format: cell-based
T1 construct: The wildtype D, E, and F domains from mosquito Aedes aegypti EcR (“AaEcR-DEF”); expressed in transfected cells; host or cells: 3T3 cells, transient transfection (Superfect)
T1 sequence (P28704 286-520 A311G/G315S/G445S/I449V): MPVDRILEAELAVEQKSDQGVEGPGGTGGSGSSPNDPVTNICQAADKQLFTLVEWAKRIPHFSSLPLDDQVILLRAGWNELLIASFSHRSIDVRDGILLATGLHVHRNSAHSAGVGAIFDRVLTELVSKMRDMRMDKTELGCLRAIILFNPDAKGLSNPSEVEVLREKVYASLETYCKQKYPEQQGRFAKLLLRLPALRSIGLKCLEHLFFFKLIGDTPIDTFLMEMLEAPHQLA
T1 sequence (P49880 405-776): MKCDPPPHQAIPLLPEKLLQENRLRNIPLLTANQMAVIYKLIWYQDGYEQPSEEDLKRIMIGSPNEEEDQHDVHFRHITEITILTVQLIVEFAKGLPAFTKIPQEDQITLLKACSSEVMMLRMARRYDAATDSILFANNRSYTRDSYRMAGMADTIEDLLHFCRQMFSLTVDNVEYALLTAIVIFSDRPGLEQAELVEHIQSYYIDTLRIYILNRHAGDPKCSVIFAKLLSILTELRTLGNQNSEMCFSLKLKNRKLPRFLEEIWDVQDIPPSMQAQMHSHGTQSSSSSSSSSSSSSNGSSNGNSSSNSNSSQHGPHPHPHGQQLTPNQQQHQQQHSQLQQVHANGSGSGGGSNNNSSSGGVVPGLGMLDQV
Experimental: 3T3 cells were trypsinized and plated at 2.5×10^3 cells/well on a 96-well plate. After incubation for 24 h at 37° C. under 5% CO2, cells were transfected with the Gal4 DBD/AaEcR (DEF) gene expression cassette and the reporter plasmid, pFRLuc, containing a 5XGAL4 response element and the firefly luciferase gene in serum free media using Superfect (Qiagen). After transfection for 4 h at 37° C., the cells were treated with ligand in serum media. […] Single dose testing was performed at 33 μM.

[2] = target: T2, GAL4 DBD (1-147)-CfEcR(DEF)/VP16AD-βRXREF-LmUSPEF (Choristoneura fumiferana, UniProt O77240); assay: 27-63 assay: luciferase reporter gene expression in stable CHO cell clone 27-63
T2 sequence (O77240 191-513): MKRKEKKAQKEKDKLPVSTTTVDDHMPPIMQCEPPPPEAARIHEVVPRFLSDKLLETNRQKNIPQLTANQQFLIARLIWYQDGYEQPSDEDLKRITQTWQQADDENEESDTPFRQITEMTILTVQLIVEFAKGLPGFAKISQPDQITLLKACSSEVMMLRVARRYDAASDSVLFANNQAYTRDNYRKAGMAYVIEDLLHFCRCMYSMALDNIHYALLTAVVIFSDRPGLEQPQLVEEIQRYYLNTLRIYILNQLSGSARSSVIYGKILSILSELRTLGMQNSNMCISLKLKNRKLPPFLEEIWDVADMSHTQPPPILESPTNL
T2 sequence (P28702 296-455 partner limits assumed): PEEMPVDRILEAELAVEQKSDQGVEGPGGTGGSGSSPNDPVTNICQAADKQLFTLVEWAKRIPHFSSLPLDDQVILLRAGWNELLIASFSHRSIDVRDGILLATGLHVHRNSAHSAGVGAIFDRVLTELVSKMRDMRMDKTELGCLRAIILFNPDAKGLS
Source text: GAL4 DBD (1-147)-CfEcR(DEF)/VP16AD-βRXREF-LmUSPEF: The wild-type D, E, and F domains from spruce budworm Choristoneura fumiferana EcR (“CfEcR-DEF”; SEQ ID NO: 1) were fused to a GAL4 DNA binding domain (“Gal4 DBD1-147”; nucleotides 31 to 471 of SEQ ID NO: 2) and placed under the control of a phosphoglycerate kinase promoter (“PGK”; SEQ ID NO: 3). Helices 1 through 8 of the EF domains from Homo sapiens RXRβ and helices 9 through 12 of the EF domains of Locusta migratoria Ultraspiracle Protein (“HsRXRβ-EF-LmUSP-EF”; SEQ ID NO: 4) were fused to the transactivation domain from VP16 (“VP16AD”; SEQ ID NO: 5) and placed under the control of an elongation factor-1α promoter (“EF-1α”; SEQ ID NO: 6). Five consensus GAL4 response element binding sites (“5XGAL4RE”; comprising 5 copies of a GAL4RE comprising SEQ ID NO: 7) were fused to a synthetic TATA minimal promoter (SEQ ID NO: 8) and placed upstream of the luciferase reporter gene (SEQ ID NO: 9).
CHO cells were transiently transfected with transcription cassettes for GAL4 DBD (1-147) CfEcR(DEF) and for VP16AD βRXREF-LmUSPEF controlled by ubiquitously active cellular promoters (PGK and EF-1α, respectively) on a single plasmid. Stably transfected cells were selected by Zeocin resistance. Individually isolated CHO cell clones were transiently transfected with a GAL4 RE-luciferase reporter (pFR Luc). 27-63 clone was selected using Hygromycin.
Cells were trypsinized and diluted to a concentration of 2.5×10^4 cells mL. 100 μL of cell suspension was placed in each well of a 96 well plate and incubated at 37° C. under 5% CO2 for 24 h. Ligand stock solutions were prepared in DMSO and diluted 300 fold for all treatments. Dose response testing consisted of 8 concentrations ranging from 33 μM to 0.01 μM.
Luciferase reporter gene expression was measured 48 h after cell treatment using Bright-Glo™ Luciferase Assay System from Promega (E2650). Luminescence was detected at room temperature using a Dynex MLX microtiter plate luminometer.
Fold inductions were calculated from single dose testing by dividing relative light units (RLU) in ligand treated cells by RLU in DMSO treated cells. BC50s were calculated from dose response data using a three-parameter logistic model.

[3] = maximum fold induction at any concentration relative to that of GS-E ligand

## Cc1cc(C)cc(C(=O)C2(NC(=O)c3ccccc3C)CCCC2)c1 [Example 89]
[1]; average, dose response 33 μM to 0.01 μM, three-parameter logistic model, read-out: AA_3T3 LC50
  LC50 (half-maximal ligand concentration for reporter induction): > 33 µM
[1]; [3]
  AA_3T3 Rel Max FI: 0.00
[1]; single dose 33 μM, RLU ligand treated / RLU DMSO treated cells
  Fold Induction Average, AA_3T3 Assay (33 μM): 78
[2]; [3]
  27-63 Rel Max FI: 0.07
[2]; read-out: 27-63 LC50, average, dose response, three-parameter logistic model
  CC50: > 33 µM
